Assay results as given in the supplement of paper PMC10307832.

Assays:
Assay in all cases: relative viability (nuclei count vs DMSO), 5 days (fraction); higher = more cells survive
XMD13-2 + Trametinib = compound: C1CC1C(=O)NC2=NNC3=C2C=CC(=C3)C4=CC(=CC=C4)C(=O)NC5CC5 [XMD13-2] + CC(=O)Nc1cccc(-n2c(=O)n(C3CC3)c(=O)c3c(Nc4ccc(I)cc4F)n(C)c(=O)c(C)c32)c1 [Trametinib] (partner 0.02 µM)
Outline: (§1)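 Lung cancer cell lines in 1536-well plates were dosed by pin tool the day after seeding, either with one drug alone or with a fixed anchor-drug dose plus five library-drug doses (not always all listed) in √10 steps. After 5 days, cells were fixed and their nuclei stained in one step (final 0.05% Triton X-100, 1% formaldehyde, 1 ug/ml Hoechst), then counted on 4× images. Relative viability is the nuclei count in treated wells divided by that in vehicle wells. Values are medians of duplicate plates.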

Dasatinib + Trametinib = compound: Cc1nc(Nc2ncc(C(=O)Nc3c(C)cccc3Cl)s2)cc(N2CCN(CCO)CC2)n1 [Dasatinib] + CC(=O)Nc1cccc(-n2c(=O)n(C3CC3)c(=O)c3c(Nc4ccc(I)cc4F)n(C)c(=O)c(C)c32)c1 [Trametinib] (partner 0.02 µM)
Outline: as §1

ALW-II-49-7 + Lapatinib = compound: Cc1ccc(C(=O)Nc2cccc(C(F)(F)F)c2)cc1Nc1cncc(C(N)=O)c1 [ALW-II-49-7] + CS(=O)(=O)CCNCc1ccc(-c2ccc3ncnc(Nc4ccc(OCc5cccc(F)c5)c(Cl)c4)c3c2)o1 [Lapatinib] (partner 2 µM)
Outline: as §1

Dasatinib + Crizotinib = compound: Cc1nc(Nc2ncc(C(=O)Nc3c(C)cccc3Cl)s2)cc(N2CCN(CCO)CC2)n1 [Dasatinib] + C[C@@H](Oc1cc(-c2cnn(C3CCNCC3)c2)cnc1N)c1c(Cl)ccc(F)c1Cl [Crizotinib] (partner 1 µM)
Outline: as §1

Row | Cell Line | relative viability (XMD13-2 + Trametinib; first compound 0.05 µM) | relative viability (XMD13-2 + Trametinib; first compound 0.1581 µM) | relative viability (XMD13-2 + Trametinib; first compound 0.5 µM) | relative viability (XMD13-2 + Trametinib; first compound 1.581 µM) | relative viability (XMD13-2 + Trametinib; first compound 5 µM) | relative viability (Dasatinib + Trametinib; first compound 0.005 µM) | relative viability (Dasatinib + Trametinib; first compound 0.01581 µM) | relative viability (Dasatinib + Trametinib; first compound 0.05 µM) | relative viability (Dasatinib + Trametinib; first compound 0.1581 µM) | relative viability (Dasatinib + Trametinib; first compound 0.5 µM) | relative viability (ALW-II-49-7 + Lapatinib; first compound 0.08 µM) | relative viability (ALW-II-49-7 + Lapatinib; first compound 0.253 µM) | relative viability (ALW-II-49-7 + Lapatinib; first compound 0.8 µM) | relative viability (ALW-II-49-7 + Lapatinib; first compound 2.53 µM) | relative viability (ALW-II-49-7 + Lapatinib; first compound 8 µM) | relative viability (Dasatinib + Crizotinib; first compound 0.005 µM) | relative viability (Dasatinib + Crizotinib; first compound 0.01581 µM) | relative viability (Dasatinib + Crizotinib; first compound 0.05 µM) | relative viability (Dasatinib + Crizotinib; first compound 0.1581 µM) | relative viability (Dasatinib + Crizotinib; first compound 0.5 µM)
1 | COR-L 105 | 0.423 | 0.466 | 0.432 | 0.476 | 0.393 | 0.445 | 0.358 | 0.389 | 0.336 | 0.253 | 0.318 | 0.372 | 0.335 | 0.359 | 0.416 | 0.71 | 0.59 | 0.528 | 0.286 | 0.285
2 | EKVX | 0.383 | 0.341 | 0.248 | – | 0.299 | 0.345 | 0.306 | 0.254 | 0.178 | 0.114 | 0.194 | 0.188 | 0.173 | 0.127 | 0.188 | 0.994 | 0.633 | 0.528 | 0.314 | 0.138
3 | EMC-BAC-2 | 0.986 | 0.893 | 0.824 | – | 0.805 | 0.965 | 0.93 | 0.923 | 0.857 | 0.716 | 0.829 | 0.812 | 0.888 | 0.937 | 0.814 | 0.754 | 0.516 | 0.425 | 0.247 | 0.221
4 | EPLC-272H | 0.289 | 0.311 | 0.301 | 0.257 | 0.271 | 0.312 | 0.267 | 0.307 | 0.222 | 0.141 | 0.666 | 0.916 | 1.07 | 1.08 | 0.782 | 0.99 | 0.765 | 0.787 | 0.537 | 0.326
5 | H3255 | 0.749 | 0.66 | 0.556 | – | 0.475 | 0.667 | 0.489 | 0.587 | 0.431 | 0.297 | 0.27 | 0.363 | 0.266 | 0.225 | 0.212 | 0.901 | 0.757 | 0.617 | 0.557 | 0.27
6 | HARA | 0.667 | 0.948 | 1.16 | 0.776 | 0.674 | 0.714 | 0.31 | 0.518 | 0.189 | 0.212 | 0.675 | 0.689 | 0.87 | 0.964 | 0.866 | 1.08 | 0.754 | 0.71 | 0.261 | 0.133
7 | HCC-15 | 0.353 | 0.351 | 0.428 | 0.363 | 0.344 | 0.354 | 0.336 | 0.332 | 0.253 | 0.207 | 0.811 | 0.818 | 0.793 | 0.815 | 0.764 | 0.873 | 0.699 | 0.743 | 0.514 | 0.489
8 | HCC-44 | 1.2 | 1.04 | 1.17 | 1.05 | 1.05 | 1.11 | 0.94 | 1.16 | 1.17 | 0.574 | 0.967 | 1.04 | 0.995 | 0.973 | 0.923 | 0.86 | 0.904 | 0.945 | 0.36 | 0.213
9 | HCC-78 | 0.842 | 0.71 | 0.834 | 0.833 | 0.792 | 0.676 | 0.679 | 0.643 | 0.444 | 0.354 | 0.779 | 0.957 | 0.993 | 0.878 | 0.623 | 0.314 | 0.289 | 0.25 | 0.158 | 0.145
10 | HCC-366 | 0.413 | 0.334 | 0.412 | 0.286 | 0.331 | 0.283 | 0.182 | 0.218 | 0.16 | 0.117 | 1.21 | 1.32 | 1 | 1.09 | 1.13 | 0.374 | 0.18 | 0.158 | 0.0803 | 0.0691
11 | HCC-827 | 0.611 | 0.502 | 0.528 | 0.49 | 0.473 | 0.545 | 0.486 | 0.492 | 0.157 | 0.132 | 0.17 | 0.237 | 0.189 | 0.178 | 0.175 | 0.924 | 0.82 | 0.807 | 0.385 | 0.145
12 | HOP-62 | 0.397 | 0.4 | 0.443 | 0.426 | 0.407 | 0.344 | 0.333 | 0.32 | 0.211 | 0.162 | 1.17 | 1.24 | 1.1 | 0.806 | 0.639 | 1.16 | 0.966 | 0.91 | 0.816 | 0.165
13 | LC-2-ad | 0.934 | 0.938 | 0.961 | 0.936 | 0.93 | 0.914 | 0.906 | 0.909 | 0.735 | 0.457 | 0.812 | 0.96 | 0.932 | 0.947 | 0.753 | 0.416 | 0.329 | 0.326 | 0.257 | 0.2
14 | LCLC-97TM1 | 0.225 | 0.198 | 0.217 | 0.17 | 0.179 | 0.221 | 0.14 | 0.174 | 0.0952 | 0.0916 | 1.03 | 1.06 | 1.06 | 0.842 | 1.01 | 0.336 | 0.485 | 0.307 | 0.238 | 0.146
15 | LK-2 | 1.1 | 0.785 | 0.779 | 0.583 | 0.571 | 0.765 | 0.399 | 0.414 | 0.263 | 0.246 | 1.01 | 0.778 | 0.919 | 0.567 | 0.825 | 0.266 | 0.209 | 0.222 | 0.189 | 0.179
16 | LOU-NH91 | 0.802 | 0.726 | 0.793 | 0.729 | 0.85 | 0.79 | 0.752 | 0.698 | 0.562 | 0.393 | 0.738 | 0.809 | 0.742 | 0.589 | 0.699 | 0.777 | 0.658 | 0.691 | 0.498 | 0.354
